{"source": "patent US11925649B2", "about": "“Treatments for diabetic neuropathy” (University of Manitoba, priority 2010, dated 2024)", "key": {"[1]": {"test_system": "sensory neurons from DRG of Sprague Dawley rat", "assay": "Total neurite outgrowth at low concentrations of M1R antagonists (immunostaining)", "type": "cell-based", "conditions": "24 hr culture", "quoted_text": "Sensory neurons from cervical, thoracic and lumbar DRG of an adult 3-4 month old male Sprague Dawley rat were isolated and dissociated using the method described in Example 1, and then were cultured for 24 h in serum-free and insulin-free F12 medium in the presence of modified N2 additives. […] Neurite outgrowth was then assessed after a culture period of 24 hr.\nTotal neurite lengths (i.e., the sum of the length of all neurites produced by an individual neuron) were assessed using an immunostaining method. […] Four images were captured per well and the replicate well frequency was set to n=6. The neuronal marker β-tubulin III (Sigma-Aldrich Canada Ltd.) was applied to formalin fixed cells. The marker was tagged with the fluorescent conjugate Alexa Fluor 488 (Invitrogen Canada Ltd.). Fluorescent images were collected using an Olympus IX71 inverted microscope with a 20×/0.45 PH1 [sequence] objective that was suitable for resolving images on plastic surfaces. […] Captured image fluorescence was thereafter converted to a grayscale 8-bit image to quantify total pixel volume. […] Total pixel volume of the neuron specific cell bodies and neurites were quantified. […] The net pixel volume was normalized against the number of neuronal cells per quantified field."}, "[2]": {"test_system": "AMP-activated protein kinase (AMPK)", "assay": "Phosphorylation of AMPK in cultured sensory neurons (Western blot)", "type": "cell-based, rat", "conditions": "10 μM", "experimental": "Samples were taken immediately (time 0) and then after 15 min, 30 min, 60 min, and 6 hr of incubation. Quantitative Western blotting was performed as following the procedure taught in Example 5. DRG homogenates of 5-10 μg of protein were resolved on a 10% SDS-PAGE gel and electroblotted onto nitrocellulose membrane. Blots were then blocked in 5% nonfat milk containing 0.05% Tween-20, rinsed in PBS (pH 7.4) and incubated with the following antibodies: (i) polyclonal anti-phospho AMPK (on Thr-172, 1:1000, Cell Signaling Technology, Danvers, MA, US), and (ii) extracellular signal-regulated kinase (T-ERK; 1:2000, Covance, Princeton, NJ, US). The blots were rinsed, incubated in Western blotting Luminol Reagent (Santa Cruz Biotechnology Inc., Santa Cruz, CA, US) and imaged using a BioRad Fluor-S image analyzer (BioRad, Hercules, CA, US)."}, "[3]": {"test_system": "STZ-induced diabetic Swiss Webster mice", "assay": "Reversal of thermal hypoalgesia and IENF loss in STZ-induced diabetic mice, i.p.", "type": "in vivo, mouse", "conditions": "10 mg/kg i.p. daily for 4 weeks from week 8", "experimental": "Swiss Webster (outbred) mice were made diabetic with 2 injections of 90 mg/kg STZ on consecutive days. […] The mice were maintained for 8 weeks after STZ injections. Diabetic neuropathy was well-established in the mice that received STZ injections as evidenced by signs of neuropathy (thermal hypoalgesia). A cohort then received 10 mg/kg VU255035 by i.p. injection daily for 4 weeks."}, "[4]": {"test_system": "M1R relative to M(2)-M(5)", "conditions": "cited from earlier work"}, "[5]": {"test_system": "M1R", "conditions": "cited from earlier work"}, "[6]": {"conditions": "in vivo in mice; cited from earlier work"}, "[7]": {"test_system": "sensory neurons from DRG of non-diabetic Sprague Dawley rat", "assay": "Neurite outgrowth from excised neurons from a normal rat", "type": "cell-based", "conditions": "24 hr; for neurite outgrowth rates: higher dosages 0.1 to 10.0 μM; for neurite outgrowth: lowest dosage of 0.01 μM", "text": "Sensory neurons from cervical, thoracic and lumbar DRG of a 3-4 month old adult male ZDF diabetic rat (model of type 2 diabetes) were isolated and dissociated using a method based on the teachings of Fernyhough et al. (1993, Brain Res. 607:117-124), Gardiner et al. (2005, Mol. Cell Neurosci. 28:229-240), and Huang et al. (2003, Diabetes 52:2129-2136). Briefly, DRG were removed from all spinal levels, their roots trimmed, and then the cells were chemically dissociated in 0.125% collagenase (Worthington Biochemical Corp., Lakewood, NJ, USA) in F12 nutrient medium (Invitrogen Canada Inc., Burlington, ON, Canada) for 1.5 h at 37° C. The ganglia were then mechanically dissociated by treatment with 0.05% trypsin (Worthington Biochemical Corp.) in F12 nutrient medium, followed by trituration with a glass pipette. […] The neuron cells were plated onto poly-L-ornithine-laminin-coated NUNC 48-well or 96-well plastic dishes with optically clear glass bottoms in serum-free and insulin-free F12 medium in the presence of modified N2 additives (containing no insulin) at 37° C. in a 95% air/5% CO2 humidified incubator. All cultures were exposed to the following additional conditions: 10 mM D-glucose, 0.1 nM insulin, 0.3 ng/ml NGF, 1 ng/ml NT-3 and 5 ng/ml GDNF (all obtained from Sigma-Aldrich Canada Ltd.). […] Neurite outgrowth was then assessed at 24 hr as previously described by Fernyhough et al. (1993) and Gardiner et al. (2005).\nSensory neurons from cervical, thoracic and lumbar DRG of a 3-4 month old non-diabetic adult male Sprague Dawley rat were isolated and dissociated using the method described in Example 1. The excised and dissociated neuron cells were plated onto poly-L-ornithine-laminin-coated NUNC 48-well or 96-well plastic dishes with optically clear glass bottoms in serum-free and insulin-free F12 medium in the presence of modified N2 additives (containing no insulin) at 37° C. in a 95% air/5% CO2 humidified incubator. All cultures were exposed to the following additional conditions: 10 mM D-glucose, 0.1 nM insulin, 0.3 ng/ml NGF, 1 ng/ml NT-3 and 5 ng/ml GDNF (all obtained from Sigma-Aldrich Canada Ltd.). […] Neurite outgrowth was then assessed at 24 hr."}}}
{"smiles": "O=C(CCNS(=O)(=O)c1cccc2nsnc12)N1CCN(c2ccncc2)CC1", "note": "[VU255035, N-(3-oxo-3-(4-(pyridine-4-yl)piperazin-1-yl)propyl)-benzo[c][1,2,5]thiadiazole-4 sulfonamide]", "values": [{"measurement": "concentration that significantly increased total neurite outgrowth", "setting": "[1]", "result": "≥ 0.03", "unit": "µM"}, {"measurement": "total AMPK levels", "setting": "[2]", "result": "not affected"}, {"measurement": "phosphorylation of AMPK (P-AMPK) relative to total ERK", "setting": "[2]; 30-60 min", "result": "maintained phosphorylation"}, {"measurement": "phosphorylation of AMPK (P-AMPK) relative to total ERK", "setting": "[2]; by 15 min", "result": "significantly raised phosphorylation of AMPK"}, {"measurement": "phosphorylation of AMPK (P-AMPK) relative to total ERK", "setting": "[2]; by 6 hr", "result": "return to baseline"}, {"measurement": "loss of IENF", "setting": "[3]", "result": "significantly reversed loss"}, {"measurement": "loss of SNP", "setting": "[3]", "result": "significantly reversed loss"}, {"measurement": "thermal hypoalgesia", "setting": "[3]", "result": "significant reversal back to control levels of thermal sensitivity"}, {"measurement": "selectivity to M1R relative to M2, M3, M4 and M5 receptors", "setting": "[4]", "result": 75, "unit": "times"}, {"measurement": "selectivity for M1R relative to M(2)-M(5)", "setting": "[4]; equilibrium radioligand binding and functional studies", "result": "greater than 75 fold"}, {"measurement": "mode of antagonism", "setting": "[5]", "result": "competitive orthosteric antagonist of M1R"}, {"measurement": "blood brain barrier penetration", "setting": "[6]", "result": "excellent blood brain barrier penetration"}]}
{"smiles": "CN1[C@@H]2CC[C@H]1C[C@@H](OC(=O)C(CO)c1ccccc1)C2", "note": "(stereo partly shown) [atropine]", "values": [{"measurement": "neurite outgrowth rates", "setting": "[7]", "result": "did not further increase neurite outgrowth rates"}, {"measurement": "neurite outgrowth", "setting": "[7]", "result": "more than tripled"}]}
{"smiles": "Cc1scc2c1N(C(=O)CN1CCN(C)CC1)c1ccccc1NC2=O", "note": "[telenzepine, Telenzepine]", "values": [{"measurement": "neurite outgrowth rates", "setting": "[7]", "result": "tripled"}, {"measurement": "neurite outgrowth", "setting": "[7]", "result": "more than doubled"}]}
